Test results reported in ChEMBL document CHEMBL3861965, “Stereochemical Assignment and Biological Evaluation of BE-14106 Unveils the Importance of One Acetate Unit for the Antifungal Activity of Polyene Macrolactams” (J Nat Prod, 2016).
Converted amounts (≈) assume the structure as drawn. The source made the active and inactive calls. No cut-off for these calls is given here.

What was measured:
Format in all cases: functional
[1] = system: Schizosaccharomyces pombe; assay: Antifungal activity against wild type fission yeast JY1 assessed as accumulation of cell wall material at 0.25 uM after 2 hrs by cfw-dye based fluorescence microscopic analysis
[2] = Antifungal activity against fission yeast harboring deltasts1/erg4 mutant after 24 hrs by turbidity assay; settings: Schizosaccharomyces pombe
[3] = Antifungal activity against wild type fission yeast JY1 after 24 hrs by turbidity assay; settings: Schizosaccharomyces pombe
[4] = Antifungal activity against fission yeast harboring deltaerg2 mutant after 24 hrs by turbidity assay; settings: Schizosaccharomyces pombe
[5] = Antifungal activity against fission yeast harboring deltaerg5 mutant after 24 hrs by turbidity assay; settings: Schizosaccharomyces pombe
[6] = Antifungal activity against fission yeast harboring deltaerg31/deltaerg32 mutant after 24 hrs by turbidity assay; settings: Schizosaccharomyces pombe
[7] = Antifungal activity against wild type fission yeast JY1 after 24 hrs by XTT assay; settings: Schizosaccharomyces pombe

Row | MIC [7] | SMILES | Activity [1] | MIC [2] | MIC [3] | MIC [4] | MIC [5] | MIC [6]
1 |  | CCC/C=C/C=C/C[C@@H]1C/C=C/C=C(C)/C=C/C=C\[C@@H](O)[C@@H](O)/C=C(C)/C=C/C=C/C(=O)N1 | Active | 0.13 to 0.28 µM (≈ 0.0585 to 0.126 µg/mL) | 0.13 to 0.28 µM (≈ 0.0585 to 0.126 µg/mL) | 0.13 to 0.28 µM (≈ 0.0585 to 0.126 µg/mL) | 0.13 to 0.28 µM (≈ 0.0585 to 0.126 µg/mL) | 0.13 to 0.28 µM (≈ 0.0585 to 0.126 µg/mL)
2 | 0.27 µM (≈ 0.25 µg/mL) | C[C@@H]1[C@H](O)[C@@H](C)/C=C/C=C/C=C/C=C/C=C/C=C/C=C/[C@H](O[C@@H]2O[C@H](C)[C@@H](O)[C@H](N)[C@@H]2O)C[C@@H]2O[C@](O)(C[C@@H](O)C[C@@H](O)[C@H](O)CC[C@@H](O)C[C@@H](O)CC(=O)O[C@H]1C)C[C@H](O)[C@H]2C(=O)O |  |  |  |  |  | 
